IC50 data for three molecules are collected here from ChEMBL document CHEMBL6127058, “Overview of the PRMT6 modulators in cancer treatment: Current progress and emerged opportunity” (Eur J Med Chem, 2024).

The target in test [1] is Protein arginine N-methyltransferase 8 (Homo sapiens, UniProt Q9NR22). In words: Inhibition of PRMT8 (unknown origin).
The target of test [2] is T1, Histone-arginine methyltransferase CARM1 (Homo sapiens, UniProt Q86X55).
T1 sequence (Q86X55 whole entry): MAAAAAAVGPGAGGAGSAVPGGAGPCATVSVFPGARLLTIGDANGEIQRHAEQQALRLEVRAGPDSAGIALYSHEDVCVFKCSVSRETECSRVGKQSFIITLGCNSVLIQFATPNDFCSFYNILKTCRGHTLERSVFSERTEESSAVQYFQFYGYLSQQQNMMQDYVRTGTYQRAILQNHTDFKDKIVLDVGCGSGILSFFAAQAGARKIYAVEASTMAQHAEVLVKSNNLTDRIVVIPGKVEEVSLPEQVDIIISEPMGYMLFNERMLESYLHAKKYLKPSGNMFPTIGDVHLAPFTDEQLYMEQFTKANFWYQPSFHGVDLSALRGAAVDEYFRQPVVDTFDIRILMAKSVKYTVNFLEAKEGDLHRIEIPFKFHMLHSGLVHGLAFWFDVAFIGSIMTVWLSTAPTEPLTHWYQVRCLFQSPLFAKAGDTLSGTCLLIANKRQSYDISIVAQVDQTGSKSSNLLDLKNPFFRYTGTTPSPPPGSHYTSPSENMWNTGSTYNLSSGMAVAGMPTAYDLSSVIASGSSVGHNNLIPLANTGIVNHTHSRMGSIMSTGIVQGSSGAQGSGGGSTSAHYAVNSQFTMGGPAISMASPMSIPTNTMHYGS
Briefly: Inhibition PRMT4 (unknown origin).

The target of test [3] is T2, Protein arginine N-methyltransferase 1 (Homo sapiens, UniProt Q99873). In words: Inhibition of PRMT1 (unknown origin).
Test [4] deals with Protein arginine N-methyltransferase 6 (Homo sapiens, UniProt Q96LA8). Briefly: Inhibition of PRMT6 (unknown origin).
Test [5] concerns the target T2, Protein arginine N-methyltransferase 1. In words: Inhibition of PRMT1 (unknown origin) by TR-FRET analysis. (In general: In TR-FRET formats the signal depends on donor and acceptor labels being close together.)

What is called IC50 is the concentration needed to halve the response being measured. The low end stands for greater potency in that assay, the high end for weaker potency in that assay.

T2 sequence (Q99873 whole entry): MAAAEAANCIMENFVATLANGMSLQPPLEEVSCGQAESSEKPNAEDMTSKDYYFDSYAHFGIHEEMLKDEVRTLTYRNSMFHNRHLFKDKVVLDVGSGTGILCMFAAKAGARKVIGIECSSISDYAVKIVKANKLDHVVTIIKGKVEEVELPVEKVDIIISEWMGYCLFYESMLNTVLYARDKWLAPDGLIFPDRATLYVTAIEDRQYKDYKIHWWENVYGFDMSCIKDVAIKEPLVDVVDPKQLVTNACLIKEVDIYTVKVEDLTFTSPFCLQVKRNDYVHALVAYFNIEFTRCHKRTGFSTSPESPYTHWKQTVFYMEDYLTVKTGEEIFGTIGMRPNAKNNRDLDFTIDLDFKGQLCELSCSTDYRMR
Sequence of Protein arginine N-methyltransferase 6 (Q96LA8 whole entry): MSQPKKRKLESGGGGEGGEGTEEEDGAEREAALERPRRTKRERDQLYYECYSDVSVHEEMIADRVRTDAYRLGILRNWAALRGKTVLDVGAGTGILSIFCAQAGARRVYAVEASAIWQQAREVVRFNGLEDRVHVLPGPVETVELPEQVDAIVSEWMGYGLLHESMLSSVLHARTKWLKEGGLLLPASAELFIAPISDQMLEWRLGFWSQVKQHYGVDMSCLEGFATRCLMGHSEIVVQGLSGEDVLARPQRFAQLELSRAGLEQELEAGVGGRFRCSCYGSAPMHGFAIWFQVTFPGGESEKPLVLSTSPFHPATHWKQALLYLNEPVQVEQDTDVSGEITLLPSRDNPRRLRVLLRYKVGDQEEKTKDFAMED
Sequence of Protein arginine N-methyltransferase 8 (Q9NR22 whole entry): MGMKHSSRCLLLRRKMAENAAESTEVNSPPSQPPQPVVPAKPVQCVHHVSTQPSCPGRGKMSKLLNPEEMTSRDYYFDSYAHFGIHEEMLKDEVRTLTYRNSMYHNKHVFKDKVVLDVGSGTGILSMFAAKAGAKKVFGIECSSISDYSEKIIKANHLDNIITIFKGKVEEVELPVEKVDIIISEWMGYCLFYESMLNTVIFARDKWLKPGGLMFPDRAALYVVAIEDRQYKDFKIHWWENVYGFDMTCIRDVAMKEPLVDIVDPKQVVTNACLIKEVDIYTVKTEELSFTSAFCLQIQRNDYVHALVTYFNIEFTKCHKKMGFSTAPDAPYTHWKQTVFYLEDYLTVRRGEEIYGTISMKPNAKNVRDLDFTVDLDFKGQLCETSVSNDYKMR

In the case of `Cc1cc(C)cc([C@@H]2c3cc(C)ccc3NC(=O)CN2C(=O)c2ccc(Br)s2)c1`, the IC50 in test [1], in test [2] and in test [3] was above 10 µM each time.
In test [4], `C=CC(C)(C)c1cc(/C=C/C(=O)c2ccc(O)cc2)c(OC)cc1O` [LICOAGROCHACONE A] gave an IC50 of 22.3 µM. That is a double-digit micromolar value.
For the molecule `CNCCN(C)Cc1ccccc1Sc1ccccc1Cl`, in test [5], the IC50 was found to be 0.0053 µM.
